# Measurements taken from patent US9409893B2, “Heteroaryl derivatives and uses thereof” (Jacobus Pharmaceutical Company, Inc., priority 2012, dated 2016).
# Structures can show the parent of a compound that is named as a salt. Where two headings read alike, the source gives them in different places.
# Key:
# P. falciparum strain D6 = experiment: [3H]-hypoxanthine growth inhibition assay, P. falciparum D6; format: cell-based; details: Plasmodium falciparum
# Protocol: (§1) The potential for antimalarial activity against Plasmodium falciparum was determined by measuring the incorporation of tritiated hypoxanthine into parasitized red blood cells.
# (§2) Stock solutions of the test compounds and the reference drug chloroquine (CQ) (Sigma Chemicals C-6628, Lot #059H0919) were prepared in silanized glass vials with AquaSil™ (Pierce, USA) to minimize absorption of the compounds to glassware. All test compounds were dissolved in DMSO (Sigma Cat No. #D8418) to 1 mM concentration, whereas CQ was dissolved in 50% methanol at a concentration of 1.6 mg/ml (base). Stock solutions were stored at −20° C.
# (§3) The P. falciparum laboratory adapted strains utilized in this project (Table 1) were in vitro cultured and routinely maintained in RPMI-1640-LPLF complete medium, which contained low concentrations of para-amino benzoic acid (0.0005 mg/L) and folic acid (0.01 mg/L).
# (§4) The low concentration of folic acid in RPMI-1640-LPLF prevents inhibition of the compound if its activity targets the parasite's folate metabolic pathway. Parasites were cultured in human red blood cells (RBCs) in vitro at 37° C. in special gas mixture (5% O2, 5% CO2 and 90% N2) as described Trager and Jensen (1979 Science 193:673-675).
# (§5) Base cultivation medium consisted of 10.4 g/L RPMI-1640-LPLF powder (Gibco BRL), 5.97 g/L HEPES buffer (MP Biomedicals, USA), 2.0 g/L D-glucose (BDH chemicals, Australia), 0.05 g/L hypoxanthine (Sigma, USA) and 40 mg/L gentamycin (Pfizer, Australia). The pH of the medium was adjusted to 6.9 and the solution was filtered using 0.2 μm pore size (AcroCap, Gelman Science, USA). Complete medium was prepared by adding sodium bicarbonate solution (final concentration, 0.21%) and drug-free heat-inactivated human plasma, pooled from various blood types, obtained from the Australian Red Cross Blood Service (Brisbane) (final concentration, 10%) to the base RPMI-1640-LPLF. For [^3H]-hypoxanthine inhibition growth assay, RPMI-1640-LPLF complete medium which lacked [^3H]-hypoxanthine ([^3H]-RPMI-1640-LPLF) was used to prevent uptake of hypoxanthine by parasites, as radioactive hypoxanthine uptake is measured as a surrogate marker of growth. All complete medium was used within three days of preparation. See DE (Para) SOP 002 for methodology.
# (§6) Red blood cells (RBC) were required for P. falciparum parasites to proliferate in vitro. 0 (Rh+) type blood was obtained from the Australian Red Cross Blood Service. The RBC were washed twice in phosphate-buffered saline (PBS) and once in [^3H]-RPMI-1640-LPLF complete medium by centrifugation at 1,500×g for 5 min. Following the final wash, the haematocrit was measured as the percent of RBC to total culture volume. The haematocrit was adjusted to 50% by removing or adding [^3H]-RPMI-LPLF complete medium. See DE (Para) SOP 003 for methodology.
# (§7) All P. falciparum strains were grown in RPMI-1640-LPLF complete medium at 4% haematocrit and 1% to 8% parasitaemia at 37° C. in sealed flasks in a gas mixture of 5% O2, 5% CO2 and 90% N2 (BOC Gases, Brisbane, Australia). For drug susceptibility assays cultures were routinely synchronized when the majority of parasites (>85%) were at early trophozoite (ring) stage. Synchronization involved removing the more mature erythrocytic parasite stages by lysis, resulting in the retention only of early trophozoite (ring) stages. Synchronization was performed by re-suspending the infected red blood cell (iRBC) pellet in 5 to 10 times its volume of 5% D-sorbitol (Bacto Laboratories Pty. Ltd., Australia) for 5 min (Lambros and Vanderberg, 1979 J Parasitol 65: 418-420). The mixture was centrifuged (1,500 rpm for 5 min) and the supernatant removed. The iRBC were washed twice using PBS buffer and once using [^3H]-RPMI-LPLF plain medium. Following synchronization, a new culture was prepared with an initial parasitaemia of 1% in RPMI-LPLF complete medium. See DE (Para) SOP 008 for methodology.
# P. falciparum strain W2 = experiment: [3H]-hypoxanthine growth inhibition assay, P. falciparum W2; format: cell-based; details: Plasmodium falciparum
# Protocol: as §1, §2, §3, §4, §5, §6, §7
# [1] = P. falciparum D6 (sensitive to chloroquine and pyrimethamine), [3H]-hypoxanthine incorporation, read-out: D6 IC50
# [2] = P. falciparum W2 (resistant to chloroquine and pyrimethamine), [3H]-hypoxanthine incorporation, read-out: W2 IC50
IC50 (P. falciparum strain D6; [1]) [nM],IC50 (P. falciparum strain W2; [2]) [nM],SMILES,"IC50 (P. falciparum strain D6; D6, read-out: D6 IC50) [nM]","IC50 (P. falciparum strain W2; W2, read-out: W2 IC50) [nM]"
,,"Cc1ccc(-c2cc(C(C)(C)C)cc(CNC(C)(C)C)c2O)cn1 [Example 30, 4-(tert-Butyl)-2-((tert-butylamino)methyl)-6-(6-methylpyridin-3-yl)phenol dihydrochloride]",67,42
5480,2270,"CC(C)(C)NCc1cc(C(C)(C)C)cc(-c2ncccc2C(F)(F)F)c1O [Example 31, 4-(tert-Butyl)-2-((tert-butylamino)methyl)-6-(3-(trifluoromethyl)pyridin-2-yl)phenol 1.7hydrochloride]",,
38,11,"CC(C)(C)NCc1cc(C(C)(C)C)cc(-c2cnc(C(F)(F)F)cn2)c1O [Example 32, 4-(tert-Butyl)-2-((tert-butylamino)methyl)-6-(5-(trifluoromethyl)pyrazin-2-yl)phenol hydrochloride]",,
,,"CC(C)(C)NCc1cc(C(C)(C)C)cc(-c2ccncc2C(F)(F)F)c1O [Example 35, 4-(tert-Butyl)-2-((tert-butylamino)methyl)-6-(3-(trifluoromethyl)pyridin-4-yl)phenol dihydrochloride]",549,144
779,401,"CC(C)(C)NCc1cc(C(C)(C)C)cc(-c2cnccc2C(F)(F)F)c1O [Example 36, 4-(tert-Butyl)-2-((tert-butylamino)methyl)-6-(4-(trifluoromethyl)pyridin-3-yl)phenol 1.9hydrochloride]",,
5000,5000,"CC(C)(C)NCc1cc(-c2cccnc2)cc(-c2cccnc2)c1O [Example 37, 2-((tert-Butylamino)methyl)-4,6-di(pyridin-3-yl)phenol]",,
7000,5000,"CC(C)(C)NCc1cc(-c2ccc(C(F)(F)F)nc2)cc(-c2ccc(C(F)(F)F)nc2)c1O [Example 38, 2-((tert-Butylamino)methyl)-4,6-bis(6-(trifluoromethyl)pyridin-3-yl)phenol]",,
73,42,"CC(C)(C)NCc1cc(-c2ccc(Cl)c(C(F)(F)F)c2)cc(-c2ccc(C(F)(F)F)nc2)c1O [Example 39, 3-((tert-Butylamino)methyl)-4′-chloro-3′-(trifluoromethyl)-5-(6-(trifluoromethyl)pyridin-3-yl)-[1,1′-biphenyl]-4-ol hydrochloride]",,
231,79,"CC(C)(C)NCc1cc(C(C)(C)C)cc(-c2ccc(C(F)(F)F)cn2)c1O [Example 40, 4-(tert-Butyl)-2-((tert-butylamino)methyl)-6-(5-(trifluoromethyl)pyridin-2-yl)phenol]",,
275,106,"CN(Cc1cc(C(C)(C)C)cc(-c2ccc(C(F)(F)F)nc2)c1O)C(C)(C)C [Example 45, 4-(tert-Butyl)-2-((tert-butyl(methyl)amino)methyl)-6-(6-(trifluoromethyl)pyridin-3-yl)phenol hydrochloride]",,
2100,1970,"CC(C)(C)NCc1cc(C(C)(C)C)cc(-c2nccc(C(F)(F)F)n2)c1O [Example 46, 4-(tert-Butyl)-2-((tert-butylamino)methyl)-6-(4-(trifluoromethyl)pyrimidin-2-yl)phenol hydrochloride]",,
43,31,"CCN(CC)Cc1cc(C(C)(C)C)cc(-c2ccc(C(F)(F)F)nc2)c1O [Example 47, 4-(tert-Butyl)-2-((diethylamino)methyl)-6-(6-(trifluoromethyl)pyridin-3-yl)phenol hydrochloride]",,
5,5,"CC(C)NCc1cc(C(C)(C)C)cc(-c2ccc(C(F)(F)F)nc2)c1O [Example 48, 4-(tert-Butyl)-2-((isopropylamino)methyl)-6-(6-(trifluoromethyl)pyridin-3-yl)phenol hydrochloride]",,
244,214,"CC(C)(C)c1cc(CN2CCOCC2)c(O)c(-c2ccc(C(F)(F)F)nc2)c1 [Example 49, 4-(tert-Butyl)-2-(morpholinomethyl)-6-(6-(trifluoromethyl)pyridin-3-yl)phenol hydrochloride]",,
,,"CN1CCN(Cc2cc(C(C)(C)C)cc(-c3ccc(C(F)(F)F)nc3)c2O)CC1 [Example 50, 4-(tert-Butyl)-2-((4-methylpiperazin-1-yl)methyl)-6-(6-(trifluoromethyl)pyridin-3-yl)phenol dihydrochloride]",297,160
46,24,"CC(C)(C)c1cc(CN2CCCCC2)c(O)c(-c2ccc(C(F)(F)F)nc2)c1 [Example 51, 4-(tert-Butyl)-2-(piperidin-1-ylmethyl)-6-(6-(trifluoromethyl)pyridin-3-yl)phenol hydrochloride]",,
23,14,"CC(C)(C)c1cc(CN2CCCC2)c(O)c(-c2ccc(C(F)(F)F)nc2)c1 [Example 52, 4-(tert-Butyl)-2-(pyrrolidin-1-ylmethyl)-6-(6-(trifluoromethyl)pyridin-3-yl)phenol hydrochloride]",,
3660,2290,"CC(=O)N1CCN(Cc2cc(C(C)(C)C)cc(-c3ccc(C(F)(F)F)nc3)c2O)CC1 [Example 53, 1-(4-(5-(tert-Butyl)-2-hydroxy-3-(6-(trifluoromethyl)pyridin-3-yl)benzyl)piperazin-1-yl)ethanone hydrochloride]",,
6320,6120,"CC(C)(C)NCc1cc(C(C)(C)C)cc(-c2ncc(C(F)(F)F)cn2)c1O [Example 54, 4-(tert-Butyl)-2-((tert-butylamino)methyl)-6-(5-(trifluoromethyl)pyrimidin-2-yl)phenol hydrochloride]",,
2500,4000,"CC(C)(C)NCc1cc(-c2ccc(S(C)(=O)=O)cc2)cc(-c2ccc(C(F)(F)F)nc2)c1O [Example 55, 3-((tert-Butylamino)methyl)-4′-(methylsulfonyl)-5-(6-(trifluoromethyl)pyridin-3-yl)-[1,1′-biphenyl]-4-ol hydrochloride]",,
104,117,"CC(C)(C)NCc1cc(C(C)(C)C)cc(-c2ccc(C(F)(F)F)nn2)c1O [Example 56, 4-(tert-Butyl)-2-((tert-butylamino)methyl)-6-(6-(trifluoromethyl)pyridazin-3-yl)phenol hydrochloride]",,
34,29,"CC(C)(C)c1cc(CNCCC(F)(F)F)c(O)c(-c2ccc(C(F)(F)F)nc2)c1 [Example 57, 4-(tert-Butyl)-2-(6-(trifluoromethyl)pyridin-3-yl)-6-(((3,3,3-trifluoropropyl)amino)methyl)phenol hydrochloride]",,
,,"CCN(CC)CCCC(C)NCc1cc(C(C)(C)C)cc(-c2ccc(C(F)(F)F)nc2)c1O (stereo not drawn) [Example 59, 4-(tert-Butyl)-2-(((5-(diethylamino)pentan-2-yl)amino)methyl)-6-(6-(trifluoromethyl)pyridin-3-yl)phenol dihydrochloride]",87,97
,,"CC(C)(C)NCCCNCc1cc(C(C)(C)C)cc(-c2ccc(C(F)(F)F)nc2)c1O [Example 60, 4-(tert-Butyl)-2-(((3-(tert-butylamino)propyl)amino)methyl)-6-(6-(trifluoromethyl)pyridin-3-yl)phenol dihydrochloride]",134,175
